Results reported in patent US8618068B2, “Methods and low dose regimens for treating red blood cell disorders” (priority 2009, dated 2013).
Marks after values point to notes of the source that are not given here.

How the values were obtained:
in vivo [1] = assay: in vivo; design: species or system Sprague-Dawley rats; conditions: rat; for NOAEL at 14 days: Sprague-Dawley
Method: […] With respect to the FOB measurements, the effect of DMB appeared to be more pronounced in females than males. […] However, decreased motor activity, reduced rectal temperature, direct limbic effects such as a deficit in visual tactile placing accuracy, ataxia, dragging of the hindlimbs in the open field, and decreased grip strength and neuromotor-neuromuscular deficits were only documented in the female rats at 600 mg/kg. In the male rats, these effects were present only in the animals treated with 1,000 mg/kg.

[2] = Cardiovascular and hemodynamic effects, 28-Day Beagle dog study; assay type: in vivo, Beagle dogs
Method: Cardiovascular safety pharmacology assessments included an in vitro screen to evaluate the effects of DMB on cardiac ion channel and an in vivo evaluation of cardiovascular and hemodynamic effects in Beagle dogs. Electrophysiologic effects were evaluated in laboratory studies utilizing voltage-clamped human embryonic kidney cells transformed by adenovirus cDNA and transfected with cDNA in order to stably express the human ether a-go-go related gene (hERG). The effect on cellular hERG channels was evaluated at DMB concentrations up to 1 mM (138 μg/mL).

absolute reticulocytes = assay: Phase 1 repeat-dose clinical study, absolute reticulocytes; assay type: in vivo, human
Method: Mean absolute reticulocytes (10^9 cells/L) in the placebo group at baseline and Day 27 were 51+/−12 and 62+/−20, respectively, which was not statistically significant (p=0.19). Mean absolute reticulocytes increased on average from 50% to 60% above the mean baseline values in the subjects who received study medication. For example, at baseline in Cohort 1 (5 mg/kg, fasted) mean absolute reticulocytes were 50+/−12 and mean peak reticulocytes were 81+/−24, (p=0.02); in Cohort 4 (10 mg/kg) mean baseline reticulocytes were 58+/−8 and mean peak reticulocytes were 84+/−14, (p=0.003), and in Cohort 5 (15 mg/kg; fed), the mean baseline was 46+/−11 and mean peak level was 72+/−11, a 50% increase (p=0.001).

clinical = conditions: human, in vivo
Method: The first clinical study was a phase 1, double-blind, placebo-controlled, single dose study of the tolerability, safety and pharmacokinetics of DMB in 32 healthy volunteers. Healthy, fasting adult volunteers received single oral doses of DMB or placebo capsules at one of four dose levels (2 mg/kg, 5 mg/kg, 10 mg/kg and 20 mg/kg). Six subjects received study drug (24 subjects total) and 2 subjects received placebo at each dose level. The 8 placebo subjects received a capsule containing only the excipients from the capsules containing the active agent. Subjects at the 20 mg/kg also received a second dose of study drug after a defined meal, one week following the fasting dose.
DMB was rapidly absorbed after oral administration, with peak concentrations of DMB occurring at 0.5 to 3 hours after dosing, followed by a mono-exponential decay phase, consistent with linear pharmacokinetics (FIG. 7; FIG. 8). Inter-subject variability in the primary PK parameters appears to be low, especially at higher doses.

[3] = Immunotoxicology weight-of-evidence analysis, repeat dose dog study; assay type: in vivo, Beagle dog
Excerpt: The immunotoxicological potential of DMB has been evaluated by a weight-of-evidence analysis of the data generated in the repeat dose Sprague Dawley rat and Beagle dog studies. In both studies, there were no effects of treatment on WBC levels or lymph node histopathology, which are predictive of potential immunotoxicity.

reticulocyte counts = assay: Reticulocyte counts in transgenic mice; assay type: in vivo; conditions: 500 mg/kg/day
Excerpt: Transgenic mice containing the human β globin gene locus in a yeast artificial chromosome (βYAC) displaying the correct developmental regulation of ε-, γ-, and β-globin genes (with a silenced y-globin gene in the adult stage) were used to study the effects of DMB on γ-globin induction and erythroid cell production. In the μLCR-human A γ-globin transgenic mice, the y-globin mRNA expression relative to murine α-globin mRNA was increased by a mean of 1.8-fold above the baseline after treatment with DMB. In the βYAC transgenic mice at intraperitoneal (IP) doses of 500 mg/kg/day, DMB induced a 2-fold increase in human γ-globin mRNA synthesis relative to that of total non-α-globin. This level of induction was similar to that seen with 1,000 mg/kg/day of butyrate, and the changes were observed from 3 days after treatment initiation and persisted until 3 to 5 days after treatment termination.
Reticulocytosis was observed from day 3 up to day 12 (at the end of sampling).

in vivo [4] = assay: in vivo; design: species or system Beagle dogs; conditions: dog
Excerpt: Completed toxicology studies conducted with DMB include a single-dose toxicity study in Sprague-Dawley rats, escalating dose toxicity study in Beagle dogs, a repeat dose study of 14-Day duration in Sprague-Dawley rats and repeat-dose toxicity studies of 28-Day duration in Sprague-Dawley rats and Beagle dogs, and 26-Week studies in Sprague-Dawley rats and Beagle dogs. […] Reproductive toxicity studies include two dose-range finding studies, one in Sprague-Dawley rats, the other in New Zealand white rabbits. DMB was administered once a day (QD) orally via gavage; doses are expressed as the sodium salt. In addition, an array of genotoxicity studies were conducted with DMB.
Based on the results of this study, the NOEL for DMB in male and female Beagle dogs was 50 mg/kg/day; and the NOAEL for DMB in male and female Beagle dogs was at least 300 mg/kg/day, the highest dose administered over the 26-Week treatment period.

[5] = tested on: β- and γ-globin gene promoters; assay: Double-luciferase reporter assay of γ-globin expression in GM979 cells; assay type: cell-based, murine
Excerpt: DMB was compared to arginine butyrate (AB) for its ability to induce y-globin expression in a double-luciferase reporter assay in murine erythroleukemia (GM979) cells transfected with the pLCR linked to the β- and γ-globin gene promoters linked to a different luciferase gene.

SMILES: CCC(C)(C)C(=O)[O-].[Na+] [DMB, Sodium 2,2-dimethylbutyrate]
- NOAEL at 14 days (in vivo [1]; female): 200 mg/kg/day
- NOAEL at 14 days (in vivo [1]; male): 600 mg/kg/day
- FOB effects after two-week drug free period (in vivo [1]): no residual FOB effects
- QTc prolongation, average ([2]; 500 mg/kg/day, female Beagle dogs only, not statistically different from baseline (p>0.05)): 14%
- effects on systemic hemodynamics ([2]; 28-Day study): No effects
- mean peak reticulocytes (absolute reticulocytes; Cohort 1 (5 mg/kg, fasted), baseline 50+/−12, p=0.02): 81+/−24 10^9 cells/L
- mean peak reticulocytes (absolute reticulocytes; Cohort 4 (10 mg/kg), baseline 58+/−8, p=0.003): 84+/−14 10^9 cells/L
- increase of reticulocytes, baseline to peak (absolute reticulocytes; Cohort 5 (15 mg/kg; fed)): 50%
- mean peak reticulocytes (absolute reticulocytes; Cohort 5 (15 mg/kg; fed), baseline 46+/−11, p=0.001): 72+/−11 10^9 cells/L
- CL/F (clinical): 0.267 to 1.03 mL/min/kg
- Vd (clinical): 0.204 to 0.426 L/kg
- doses achieving biologically active plasma drug levels (clinical): ≥ 10 mg/kg
- half-life (clinical): 5.5 to 11.6 h
- AUC(0-inf) (clinical; 2 mg/kg): 38 ± 23 µg·h/mL
- AUC (clinical; 5 mg/kg): 38.3 µg·h/mL
- AUC(0-inf) (clinical; 5 mg/kg): 320 ± 40 µg·h/mL
- AUC(0-inf) (clinical; 10 mg/kg): 538 ± 125 µg·h/mL
- AUC (clinical; 20 mg/kg): 1190 µg·h/mL
- AUC(0-inf) (clinical; 20 mg/kg): 1190 ± 243 µg·h/mL
- effect of food on AUCINF (clinical; 20 mg/kg): no effects were observed
- Cmax (clinical; 20 mg/kg, mean Cmax): 89 µg/mL
- time of peak concentrations after dosing (clinical; po): 0.5 to 3 h
- effects on WBC levels or lymph node histopathology [3]: no effects
- increase in reticulocyte counts (reticulocyte counts): approximately 6.7 fold
- NOAEL at 26 weeks (in vivo [4]; both sexes, Beagle): ≥ 300 mg/kg/day
- NOEL (in vivo [4]; both, Beagle, 26 weeks): 50 mg/kg/day
- adverse effects (in vivo [4]): no adverse effects
- clinical observations (in vivo [4]): no important treatment-related clinical observations
- effects on ECG measurements (in vivo [4]): No biologically significant effects
- Mean Fold Increase ([5]; 0.5 mM, compared to untreated controls, p ≦ 0.01): 2.2*
- γ/(γ + β) globin Expression, Range ([5]; Active Concentration 0.5 mM): 0.033-0.052
